In patent US9682965B2, “Fumagillol heterocyclic compounds and methods of making and using same” (Zafgen, Inc., priority 2015, dated 2017):
Structures can show the parent of a compound that is named as a salt. Where two headings read alike, the source gives them in different places.

Tests used:
[1] = system: Diet Induced Obese (DIO) C57BL/6 mice; experiment: 10 day DIO mouse model (body weight, food intake, hematology, blood chemistry); type: in vivo; conditions: 240 h, read-out: DIO Mouse 10-day weight loss vs vehicle; for inhibition in vivo at 1 mg/kg: 1.0 mpk sc
Summary of the method: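 DIO C57BL/6 mice on 60% kcal fat diet received compounds subcutaneously once daily for 10 days at 1.0, 0.5, 0.3, 0.1 or 0.03 mpk, in 10% DMSO in water, after 3-day vehicle acclimation. Body weight and food intake were recorded daily. Hematology and blood chemistry were taken on Day 11, 24 h post-final dose.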

[2] = system: Male Sprague Dawley rats on high fat diet; experiment: 11 day rat DIO model (body weight, food intake, hematology, blood chemistries); type: in vivo; conditions: 264 h, DIO rat, once a day for 11 days, read-out: DIO Rat 11-day weight loss vs vehicle; for inhibition in vivo at 0.3 mg/kg: 0.3 mpk sc; for inhibition in vivo at 1 mg/kg: 1.0 mpk sc
Summary of the method: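 Male Sprague Dawley rats on 45% high-fat diet, acclimated 3 days to vehicle injections, then given compound (0.03-1.0 mg/kg) or vehicle (10% DMSO in water) sc once daily for 11 days. Body weight and food intake recorded daily. Blood taken about 2 h after the final dose for hematology and chemistry.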

[3] = biological target: recombinant human MetAP2 (Homo sapiens (Human), UniProt P50579); experiment: recombinant human MetAP2 enzyme inhibition assay; type: biochemical
Procedure: Compounds are tested for their capacity to inhibit recombinant human MetAP2 activity using the following assay.
Flag tagged Human recombinant MetAP2 expressed and isolated for use as the enzyme source. 10 mM stock solutions of compounds were prepared in 100% DMSO and further diluted in 100% DMSO required concentration to 1 mM stocks. The stock compound solutions and DMSO vehicle controls were diluted to target final compound concentrations using assay buffer to a final concentration of 50 mM HEPES containing 100 mM NaCl, pH adjusted to 7.5. The MAS peptide was formulated to a 7.5 mM stock in distilled water and prior to use further diluted 1:4. […] 40 μl of enzyme was mixed with 100 μl of MnCl2 then further diluted in assay buffer to a final concentration of 16 μg/ml. To test for compound effect on MetAP2 enzyme activity, 5 μl of test compound, 10 μl of MAS substrate/amino acid oxidase mixture, 10 μl of MetAP2 was added to test wells in a 384 well black plate with blank wells containing no enzyme, replaced with 10 μl of assay buffer. All compounds were tested in duplicate on two occasions on the same day.
The plate was sealed with a TopSeal A cover and mixed briefly on an orbital mixer at 900 rpm. The plate was incubated for a further 25 minutes at 25° C. A 5× stock of Amplex buffer was prepared (0.25M sodium phosphate, pH 7.4) and stored at 4° C. […] 25 μl detection reagent was added to each well of the test plate, which was re-sealed and mixed briefly on an orbital shaker.

[4] = system: pregnant Sprague Dawley rats (embryo/fetal development)
From the text: Study Summary Rat Embryofetal:
The objective of this study design was to evaluate the potential effects of disclosed compounds on embryo/fetal development when given subcutaneously to pregnant rats once every three days during the critical period of organogenesis (Gestation Days 6-18). Female, Sprague Dawley rats, approximately 10 weeks of age, time bred, were ordered from a certified vendor and housed individually housed in stainless steel cages suspended over flush pans, on a 12-hour light-dark cycle (0700-1900) at 20-26° C. and 30-70% humidity. Rats were fed a standard rodent chow and provided water ad libitum. Rats were received and housed in the facility for a period of approximately 1 to 2 days.
Compounds were formulated using 100% DMSO mixed in Sterile Water for Injection, resulting in 2% DMSO solution in water. If necessary, due to limited solubility of a test article, a higher percentage of DMSO solution in water was used. Groups of 8 mated and presumed pregnant female rats were given subcutaneous doses of vehicle or test article, once every three days, beginning on Gestation Day 6 and ending on Gestation Day 18 (Days 6, 9, 12, 15, and 18), maintained two more days, and then euthanized and necropsied on Gestation Day 20. Body weights was recorded for all animals on Gestation Days 5 (purpose of randomization), 6, 9, 12, 15, 18, and 20 (scheduled euthanasia). Food consumption by weight was recorded on Gestation Days 6, 9, 12, 15, 18, and 20 (scheduled termination).
At necropsy, the dams were examined visually for external abnormalities including palpable masses. The abdominal, thoracic, and cranial cavities and their contents were examined for abnormalities and findings will be recorded. The reproductive tract were examined to record the number of ovarian corpora lutea, the number and location of uterine implantation sites noting the position of the cervix, and the number of early resorptions, late resorptions, live fetuses, and dead fetuses. For dead fetuses and late resorptions, crown-to-rump length and weight were recorded, if possible, and the fetus was discarded. For viable fetuses, weight, sex, and grossly visible external abnormalities were recorded.

[5] = DIO mouse, 0.3 mpk sc, once a day for 10 days
[6] = recombinant human MetAP2, MAS peptide substrate, 25 minutes at 25° C
[7] = 6 mpk, subcutaneous, once every three days, Gestation Days 6-18, pregnant rats
[8] = DIO mouse, once a day for 10 days

Sequence of recombinant human MetAP2 (P50579 whole entry): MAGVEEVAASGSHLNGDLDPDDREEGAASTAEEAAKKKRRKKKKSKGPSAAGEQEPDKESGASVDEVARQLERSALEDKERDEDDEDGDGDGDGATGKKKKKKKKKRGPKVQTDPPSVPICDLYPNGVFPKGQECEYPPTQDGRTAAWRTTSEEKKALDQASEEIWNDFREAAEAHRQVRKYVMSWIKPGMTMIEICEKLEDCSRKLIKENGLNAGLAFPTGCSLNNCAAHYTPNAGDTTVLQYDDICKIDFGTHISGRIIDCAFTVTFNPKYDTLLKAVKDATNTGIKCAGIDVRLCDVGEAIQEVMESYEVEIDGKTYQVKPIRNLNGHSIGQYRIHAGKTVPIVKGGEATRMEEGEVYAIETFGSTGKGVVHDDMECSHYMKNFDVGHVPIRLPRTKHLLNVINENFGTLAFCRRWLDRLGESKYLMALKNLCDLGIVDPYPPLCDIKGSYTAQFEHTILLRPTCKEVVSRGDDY

IC50 [3, 6]	SMILES	inhibition in vivo at 0.3 mg/kg [1, 5]	inhibition in vivo at 0.3 mg/kg [2]	also measured
< 50 nM	CCN(CC)CC[C@H]1CCN(C(=O)O[C@@H]2CC[C@]3(CO3)[C@@H]([C@@]3(C)O[C@@H]3CC=C(C)C)[C@@H]2OC)C1 [Example 52, (S)-((3R,4S,5S,6R)-5-methoxy-4-((2R,3R)-2-methyl-3-(3-methylbut-2-enyl)oxiran-2-yl)-1-oxaspiro[2.5]octan-6-yl) 3-(2-(diethylamino)ethyl)pyrrolidine-1-carboxylate]	8.3%	4%	
	CO[C@@H]1[C@H](OC(=O)N2CC(OC(=O)N3CCN(CC(F)(F)F)CC3)C2)CC[C@]2(CO2)[C@H]1[C@@]1(C)O[C@@H]1CC=C(C)C [Example 81, 1-(((3R,4S,5S,6R)-5-methoxy-4-((2R,3R)-2-methyl-3-(3-methylbut-2-enyl)oxiran-2-yl)-1-oxaspiro[2.5]octan-6-yloxy)carbonyl)azetidin-3-yl 4-(2,2,2-trifluoroethyl)piperazine-1-carboxylate]	16.9%		Rat Embryofetal @6 mpk [4, 7]: Positive
< 50 nM	CCN(CC)CC[C@H]1CCN(C(=O)O[C@@H]2CC[C@]3(CO3)[C@@H]([C@@]3(C)O[C@@H]3CC=C(C)C)[C@@H]2OC)C1 [Example 53, (S)-((3R,4S,5S,6R)-5-methoxy-4-((2R,3R)-2-methyl-3-(3-methylbut-2-enyl)oxiran-2-yl)-1-oxaspiro[2.5]octan-6-yl) 3-(2-(diethylamino)ethyl)pyrrolidine-1-carboxylate]	10.9%	3%	
	CO[C@@H]1[C@H](OC(=O)N2CC(CCN3CCOCC3)C2)CC[C@]2(CO2)[C@H]1[C@@]1(C)O[C@@H]1CC=C(C)C [Example 1, (3R,4S,5S,6R)-5-methoxy-4-((2R,3R)-2-methyl-3-(3-methylbut-2-en-1-yl)oxiran-2-yl)-1-oxaspiro[2.5]octan-6-yl 3-(2-morpholinoethyl)azetidine-1-carboxylate]	16.8%	5.7%	inhibition in vivo at 1 mg/kg [2]: 7.7%; Rat Embryofetal @6 mpk [4, 7]: Negative
	CO[C@@H]1[C@H](OC(=O)/C=C/c2ccc(OCCN(C)C)cc2)CC[C@]2(CO2)[C@H]1[C@@]1(C)O[C@@H]1CC=C(C)C [A, [(3R,6R,7S,8S)-7-methoxy-8-[(2R,3R)-2-methyl-3-(3-methylbut-2-enyl)oxiran-2-yl]-2-oxaspiro[2.5]octan-6-yl] (E)-3-[4-[2-(dimethylamino)ethoxy]phenyl]prop-2-enoate, reference compound]	18%	20%	Rat Embryofetal @6 mpk [4, 7]: Positive
	CO[C@@H]1[C@H](OC(=O)N2CC(Cc3ccc(C)nc3)C2)CC[C@]2(CO2)[C@H]1[C@@]1(C)O[C@@H]1CC=C(C)C [Example 101, (3R,4S,5S,6R)-5-methoxy-4-((2R,3R)-2-methyl-3-(3-methylbut-2-enyl)oxiran-2-yl)-1-oxaspiro[2.5]octan-6-yl 3-((6-methylpyridin-3-yl)methyl)azetidine-1-carboxylate]	15.6%	3.9%	Rat Embryofetal @6 mpk [4, 7]: Positive
< 50 nM	CCNCCC1CN(C(=O)O[C@@H]2CC[C@]3(CO3)[C@@H]([C@@]3(C)O[C@@H]3CC=C(C)C)[C@@H]2OC)C1 [Example 121, (3R,4S,5S,6R)-5-methoxy-4-((2R,3R)-2-methyl-3-(3-methylbut-2-en-1-yl)oxiran-2-yl)-1-oxaspiro[2.5]octan-6-yl3-(2-(ethylamino)ethyl)azetidine-1-carboxylate]	7.5%	5%	inhibition in vivo at 1 mg/kg [1, 8]: 12.6%
< 50 nM	CCNC[C@H]1CCN1C(=O)O[C@@H]1CC[C@]2(CO2)[C@@H]([C@@]2(C)O[C@@H]2CC=C(C)C)[C@@H]1OC [Example 123, (R)-((3R,4S,5S,6R)-5-methoxy-4-((2R,3R)-2-methyl-3-(3-methylbut-2-enyl)oxiran-2-yl)-1-oxaspiro[2.5]octan-6-yl) 2-((ethylamino)methyl)azetidine-1-carboxylate formate]		1%	inhibition in vivo at 1 mg/kg [1, 8]: 9.7%; inhibition in vivo at 1 mg/kg [2]: 5.4%
< 50 nM	CO[C@@H]1[C@H](OC(=O)N2CC(CCN3CCC3)C2)CC[C@]2(CO2)[C@H]1[C@@]1(C)O[C@@H]1CC=C(C)C [Example 5, (3R,4S,5S,6R)-5-methoxy-4-((2R,3R)-2-methyl-3-(3-methylbut-2-en-1-yl)oxiran-2-yl)-1-oxaspiro[2.5]octan-6-yl 3-(2-(azetidin-1-yl)ethyl)azetidine-1-carboxylate]	4.3%		
< 50 nM	CO[C@@H]1[C@H](OC(=O)N2CC(CC(N)=O)C2)CC[C@]2(CO2)[C@H]1[C@@]1(C)O[C@@H]1CC=C(C)C [Example 65, (3R,4S,5S,6R)-5-methoxy-4-((2R,3R)-2-methyl-3-(3-methylbut-2-enyl)oxiran-2-yl)-1-oxaspiro[2.5]octan-6-yl 3-(2-amino-2-oxoethyl)azetidine-1-carboxylate]	2.6%		
	CCNCCCC1CN(C(=O)O[C@@H]2CC[C@]3(CO3)[C@@H]([C@@]3(C)O[C@@H]3CC=C(C)C)[C@@H]2OC)C1 [Example 124, (3R,4S,5S,6R)-5-methoxy-4-((2R,3R)-2-methyl-3-(3-methylbut-2-enyl)oxiran-2-yl)-1-oxaspiro[2.5]octan-6-yl 3-(3-(ethylamino)propyl)azetidine-1-carboxylate formate]	4.9%		IC50 [3]: < 50 nM
< 50 nM	CCNC[C@@H]1CCN1C(=O)O[C@@H]1CC[C@]2(CO2)[C@@H]([C@@]2(C)O[C@@H]2CC=C(C)C)[C@@H]1OC [Example 122, (S)-((3R,4S,5S,6R)-5-methoxy-4-((2R,3R)-2-methyl-3-(3-methylbut-2-enyl)oxiran-2-yl)-1-oxaspiro[2.5]octan-6-yl) 2-((ethylamino)methyl)azetidine-1-carboxylate]	3.2%		
< 50 nM	CO[C@@H]1[C@H](OC(=O)N2CC(CC(=O)N3CCOCC3)C2)CC[C@]2(CO2)[C@H]1[C@@]1(C)O[C@@H]1CC=C(C)C [Example 62, (3R,4S,5S,6R)-5-methoxy-4-((2R,3R)-2-methyl-3-(3-methylbut-2-enyl)oxiran-2-yl)-1-oxaspiro[2.5]octan-6-yl 3-(2-morpholino-2-oxoethyl)azetidine-1-carboxylate formate]	7.4%		
	CO[C@@H]1[C@H](OC(=O)N2CC(CCN3CC4C(C3)C4(F)F)C2)CC[C@]2(CO2)[C@H]1[C@@]1(C)O[C@@H]1CC=C(C)C (stereo partly drawn) [Example 22, (3R,4S,5S,6R)-5-methoxy-4-((2R,3R)-2-methyl-3-(3-methylbut-2-enyl)oxiran-2-yl)-1-oxaspiro[2.5]octan-6-yl 3-(2-(6,6-difluoro-3-azabicyclo[3.1.0]hexan-3-yl)ethyl)azetidine-1-carboxylate formate]			inhibition in vivo at 0.3 mg/kg ([1]; Mus musculus, sc): 14%; Rat Embryofetal @6 mpk ([4]; rat, in vivo): Negative
